Measurements taken from the NIST ThermoML archive (doi:10.1021/acs.jced.8b00487).
Several values for one entry are separate records, joined by “and”; a condition that tells them apart may be missing. Equal entries are not always repeated. ± gives the expanded uncertainty stated by the source.

Columns and labels:
[1] = 298.15 K; 101.33 kPa; Liquid; Vibrating tube method
[2] = xn = mol fraction of the nth substance listed; conditions: 298.15 K, 101 kPa, Liquid, Vibrating tube method

Cc1ccccc1C [1,2-dimethylbenzene]
mass density [1]: 875.6 ± 0.5 kg/m3

CCCCC(CC)COP(=O)(O)OCC(CC)CCCC (stereo unspecified) [bis(2-ethylhexyl) hydrogen phosphate] + CCCCC(CC)COP(=O)([O-])OCC(CC)CCCC.CCCCC(CC)COP(=O)([O-])OCC(CC)CCCC.CCCCC(CC)COP(=O)([O-])OCC(CC)CCCC.[Dy+3]
mass density ([2]; x2 = 0): 971 ± 2 kg/m3

CCCCC(CC)COP(=O)(O)OCC(CC)CCCC (stereo unspecified) [bis(2-ethylhexyl) hydrogen phosphate] + CCCCC(CC)COP(=O)([O-])OCC(CC)CCCC.CCCCC(CC)COP(=O)([O-])OCC(CC)CCCC.CCCCC(CC)COP(=O)([O-])OCC(CC)CCCC.[Eu+3]
mass density ([2]; x2 = 0): 970.5 ± 2 kg/m3

CCCCC(CC)COP(=O)(O)OCC(CC)CCCC (stereo unspecified) [bis(2-ethylhexyl) hydrogen phosphate] + CCCCC(CC)COP(=O)([O-])OCC(CC)CCCC.CCCCC(CC)COP(=O)([O-])OCC(CC)CCCC.CCCCC(CC)COP(=O)([O-])OCC(CC)CCCC.[Gd+3]
mass density ([2]; x2 = 0): 970.5 ± 2 kg/m3

CCCCC(CC)COP(=O)(O)OCC(CC)CCCC (stereo unspecified) [bis(2-ethylhexyl) hydrogen phosphate] + CCCCC(CC)COP(=O)([O-])OCC(CC)CCCC.CCCCC(CC)COP(=O)([O-])OCC(CC)CCCC.CCCCC(CC)COP(=O)([O-])OCC(CC)CCCC.[Nd+3]
mass density ([2]; x2 = 0): 971 ± 2 kg/m3 and 969.1 ± 2 kg/m3 and 970.5 ± 2 kg/m3

CCCCC(CC)COP(=O)(O)OCC(CC)CCCC (stereo unspecified) [bis(2-ethylhexyl) hydrogen phosphate] + CCCCC(CC)COP(=O)([O-])OCC(CC)CCCC.CCCCC(CC)COP(=O)([O-])OCC(CC)CCCC.CCCCC(CC)COP(=O)([O-])OCC(CC)CCCC.[Sm+3]
mass density ([2]; x2 = 0): 971 ± 2 kg/m3 and 970.5 ± 2 kg/m3

CCCCC(CC)COP(=O)(O)OCC(CC)CCCC (stereo unspecified) [bis(2-ethylhexyl) hydrogen phosphate] + CCCCC(CC)COP(=O)([O-])OCC(CC)CCCC.CCCCC(CC)COP(=O)([O-])OCC(CC)CCCC.CCCCC(CC)COP(=O)([O-])OCC(CC)CCCC.[Tb+3]
mass density ([2]; x2 = 0): 970.5 ± 2 kg/m3

CCCCC(CC)COP(=O)(O)OCC(CC)CCCC (stereo unspecified) [bis(2-ethylhexyl) hydrogen phosphate] + Cc1ccccc1C
mass density ([2]; x2 = 0.5002): 946.2 ± 4 kg/m3 and 946.1 ± 4 kg/m3 | mass density ([2]; x2 = 0.5198): 944.7 ± 4 kg/m3 | mass density ([2]; x2 = 0.5201): 944.6 ± 4 kg/m3 | mass density ([2]; x2 = 0.7313): 924.4 ± 4 kg/m3 | mass density ([2]; x2 = 0.8195): 912.6 ± 4 kg/m3 and 912.4 ± 4 kg/m3 | mass density ([2]; x2 = 0.8197): 912.5 ± 4 kg/m3 | mass density ([2]; x2 = 0.8203): 912.4 ± 4 kg/m3 | mass density ([2]; x2 = 0.8204): 912.2 ± 4 kg/m3 | mass density ([2]; x2 = 0.9275): 893.2 ± 4 kg/m3 and 892.9 ± 4 kg/m3 | mass density ([2]; x2 = 0.9406): 890.1 ± 4 kg/m3 and 890.3 ± 4 kg/m3 and 890 ± 4 kg/m3 | mass density ([2]; x2 = 0.9759): 882 ± 4 kg/m3 | mass density ([2]; x2 = 0.976): 882 ± 4 kg/m3 and 881.9 ± 4 kg/m3 and 881.8 ± 4 kg/m3

CCCCC(CC)COP(=O)([O-])OCC(CC)CCCC.CCCCC(CC)COP(=O)([O-])OCC(CC)CCCC.CCCCC(CC)COP(=O)([O-])OCC(CC)CCCC.[Dy+3] (stereo unspecified) [dysprosium(III) bis(2-ethylhexyl) phosphate] + CCCCC(CC)COP(=O)(O)OCC(CC)CCCC
mass density ([2]; x1 = 0.0039): 973.1 ± 2 kg/m3 | mass density ([2]; x1 = 0.00883): 975.7 ± 2 kg/m3 | mass density ([2]; x1 = 0.02055): 981.6 ± 2 kg/m3 | mass density ([2]; x1 = 0.03494): 988.7 ± 2 kg/m3 | mass density ([2]; x1 = 0.04879): 995.1 ± 2 kg/m3

CCCCC(CC)COP(=O)([O-])OCC(CC)CCCC.CCCCC(CC)COP(=O)([O-])OCC(CC)CCCC.CCCCC(CC)COP(=O)([O-])OCC(CC)CCCC.[Eu+3] (stereo unspecified) [europium(III) bis(2-ethylhexyl) phosphate] + CCCCC(CC)COP(=O)(O)OCC(CC)CCCC
mass density ([2]; x1 = 0.01457): 977.5 ± 2 kg/m3 | mass density ([2]; x1 = 0.03221): 985.6 ± 2 kg/m3 | mass density ([2]; x1 = 0.04158): 989.9 ± 2 kg/m3 | mass density ([2]; x1 = 0.05518): 995.6 ± 2 kg/m3 | mass density ([2]; x1 = 0.07111): 1001.7 ± 2 kg/m3

CCCCC(CC)COP(=O)([O-])OCC(CC)CCCC.CCCCC(CC)COP(=O)([O-])OCC(CC)CCCC.CCCCC(CC)COP(=O)([O-])OCC(CC)CCCC.[Gd+3] (stereo unspecified) [gadolinium(III) bis(2-ethylhexyl) phosphate] + CCCCC(CC)COP(=O)(O)OCC(CC)CCCC
mass density ([2]; x1 = 0.01568): 978.4 ± 2 kg/m3 | mass density ([2]; x1 = 0.0349): 987.4 ± 2 kg/m3 | mass density ([2]; x1 = 0.04335): 991.2 ± 2 kg/m3 | mass density ([2]; x1 = 0.05925): 997.8 ± 2 kg/m3

CCCCC(CC)COP(=O)([O-])OCC(CC)CCCC.CCCCC(CC)COP(=O)([O-])OCC(CC)CCCC.CCCCC(CC)COP(=O)([O-])OCC(CC)CCCC.[Nd+3] (stereo unspecified) [neodymium(III) bis(2-ethylhexyl) phosphate] + CCCCC(CC)COP(=O)(O)OCC(CC)CCCC
mass density ([2]; x1 = 0.01187): 976.8 ± 2 kg/m3 | mass density ([2]; x1 = 0.01364): 975.7 ± 2 kg/m3 | mass density ([2]; x1 = 0.01427): 977.3 ± 2.1 kg/m3 | mass density ([2]; x1 = 0.02626): 981.7 ± 2.5 kg/m3 | mass density ([2]; x1 = 0.02653): 983.6 ± 2.5 kg/m3 | mass density ([2]; x1 = 0.02822): 983.8 ± 2 kg/m3 | mass density ([2]; x1 = 0.03921): 988.6 ± 2 kg/m3 | mass density ([2]; x1 = 0.0402): 987.6 ± 2 kg/m3 | mass density ([2]; x1 = 0.04214): 990.4 ± 2 kg/m3 | mass density ([2]; x1 = 0.04446): 991 ± 2 kg/m3 | mass density ([2]; x1 = 0.04708): 992.1 ± 2 kg/m3 | mass density ([2]; x1 = 0.04955): 991.6 ± 2 kg/m3 | mass density ([2]; x1 = 0.05317): 994.9 ± 2 kg/m3 | mass density ([2]; x1 = 0.0729): 1002.3 ± 2 kg/m3 | mass density ([2]; x1 = 0.07322): 1002.5 ± 2 kg/m3 | mass density ([2]; x1 = 0.07707): 1002.6 ± 2 kg/m3 | mass density ([2]; x1 = 0.0837): 1006.6 ± 2 kg/m3

CCCCC(CC)COP(=O)([O-])OCC(CC)CCCC.CCCCC(CC)COP(=O)([O-])OCC(CC)CCCC.CCCCC(CC)COP(=O)([O-])OCC(CC)CCCC.[Sm+3] (stereo unspecified) [samarium(III) bis(2-ethylhexyl) phosphate] + CCCCC(CC)COP(=O)(O)OCC(CC)CCCC
mass density ([2]; x1 = 0.00583): 974 ± 2 kg/m3 | mass density ([2]; x1 = 0.01288): 976.9 ± 2 kg/m3 | mass density ([2]; x1 = 0.01616): 978.9 ± 2 kg/m3 | mass density ([2]; x1 = 0.02646): 983.1 ± 2 kg/m3 | mass density ([2]; x1 = 0.03185): 986.2 ± 2 kg/m3 | mass density ([2]; x1 = 0.03372): 986.4 ± 2 kg/m3 | mass density ([2]; x1 = 0.05017): 993.9 ± 2 kg/m3 | mass density ([2]; x1 = 0.05958): 997.2 ± 2 kg/m3 | mass density ([2]; x1 = 0.06022): 998.2 ± 2 kg/m3 | mass density ([2]; x1 = 0.07053): 1001.8 ± 2 kg/m3

CCCCC(CC)COP(=O)([O-])OCC(CC)CCCC.CCCCC(CC)COP(=O)([O-])OCC(CC)CCCC.CCCCC(CC)COP(=O)([O-])OCC(CC)CCCC.[Tb+3] (stereo unspecified) [terbium(III) bis(2-ethylhexyl) phosphate] + CCCCC(CC)COP(=O)(O)OCC(CC)CCCC
mass density ([2]; x1 = 0.00621): 973.7 ± 2 kg/m3 | mass density ([2]; x1 = 0.0103): 975.8 ± 2 kg/m3 | mass density ([2]; x1 = 0.01167): 976.6 ± 2 kg/m3 | mass density ([2]; x1 = 0.01875): 980 ± 2 kg/m3 | mass density ([2]; x1 = 0.02771): 984.4 ± 2 kg/m3 | mass density ([2]; x1 = 0.04671): 993.3 ± 2 kg/m3
